Test [1] has as its target TRIM21 PRYSPRY (PRYSPRY domain of TRIM21) (Homo sapiens, UniProt P19474, D355A). The experiment in a line: isothermal titration calorimetry. Format: binding. On the technique in general: Isothermal titration calorimetry measures the heat released or taken up as one component is titrated into another.
The target in test [2] is TRIM21 PRYSPRY (PRYSPRY domain of TRIM21) (Homo sapiens, UniProt P19474). The experiment in a line: microscale thermophoresis, RED-NHS labelled protein. Format: binding. In general terms: MST reads how a fluorescent partner responds to local heating, with and without ligand.
Chain of TRIM21 PRYSPRY (PRYSPRY domain of TRIM21) (Homo sapiens, UniProt P19474) (P19474 287-465): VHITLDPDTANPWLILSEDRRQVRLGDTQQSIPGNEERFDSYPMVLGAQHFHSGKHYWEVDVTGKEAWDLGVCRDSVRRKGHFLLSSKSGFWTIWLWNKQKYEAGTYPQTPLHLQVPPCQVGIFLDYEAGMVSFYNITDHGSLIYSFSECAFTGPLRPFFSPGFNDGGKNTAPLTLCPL

Chain of TRIM21 PRYSPRY (PRYSPRY domain of TRIM21) (Homo sapiens, UniProt P19474, D355A) (P19474 287-465 D355A): as the sequence (P19474 287-465) above, with D69A counted along it

As a reminder, the Kd is the concentration at which binding is half-saturated. The low end stands for higher affinity, the high end for lower affinity. Take `CC(=O)c1ccc2c(c1)N(CCCN(C)C)c1ccccc1S2` [acepromazine]: the dissociation constant Kd was 5.66 µM in test [1] and 44.6 µM in test [2]. With `C[C@@H](O)c1ccc2c(c1)N(CCCN(C)C)c1ccccc1S2` [(R)-ACE-OH], the Kd in test [1] was 9.11 µM. With `C[C@H](O)c1ccc2c(c1)N(CCCN(C)C)c1ccccc1S2` [(S)-hydroxyl-acepromazine], the values for the Kd in test [1] and in test [2] were 17.9 µM and 237 µM, respectively.

The values are drawn from paper doi:10.1101/2024.01.31.578122v1 (biorxiv, 2024).
